Blank lines part the entries; values can stand above or below the compound they belong to.
Legend:
[1] = system: HER2; assay: HER2 degradation in BT-474 cells (Example 3, Western blot / in-cell imaging); format: cell-based, human; details: BT-474 cells; for IC50: Homo sapiens, read-out: HER2 (IC50)
[2] = system: HER2; assay: HER2 degradation assay with BT-474 cell line (Example 12, FACS); format: cell-based; details: Homo sapiens
[3] = in vivo; details: mouse
[4] = Tissue distribution of SDC-TRAPs in tumor-bearing mice: plasma, tumor, heart (Examples 14-15); details: mouse, in vivo
[5] = BT-474, SDC-TRAPs of the 41st table
[6] = BT-474, SDC-TRAPs of the 43rd table

IC50 [1]: 2.35 µM
IC50 ([2]; BT-474 cells): 2.35 µM
Structure (SMILES): CC(C)c1cc(-c2nnc(O)n2-c2ccc3c(ccn3CCOCCNC(=O)CCCC(=O)Nc3cccc4c3CN(C3CCC(=O)NC3=O)C4=O)c2)c(O)cc1O (stereo not drawn) [SDC-TRAP-0015, N1-(2-(2-(5-(3-(2,4-dihydroxy-5-isopropylphenyl)-5-hydroxy-4H-1,2,4-triazol-4-yl)-1H-indol-1-yl)ethoxy)ethyl)-N5-(2-(2,6-dixopiperidin-3-yl)-1-oxoisoindolin-4-yl)glutaramide]

IC50 [1]: > 5 µM
IC50 ([2]; BT-474 cells): > 10 µM
Structure (SMILES): CC(C)c1cc(-c2nnc(O)n2-c2ccc3c(ccn3CCC(=O)Nc3cccc4c3CN(C3CCC(=O)NC3=O)C4=O)c2)c(O)cc1O (stereo not drawn) [SDC-TRAP-0017, 3-(5-(3-(2,4-dihydroxy-5-isopropylphenyl)-5-hydroxy-4H-1,2,4-triazol-4-yl)-1H-indol-1-yl)-N-(2-(2,6-dioxopiperidin-3-yl)-1-oxoisoindolin-4-yl)propanamide]

IC50 [1]: > 5 µM
IC50 ([2]; BT-474 cells): 8.21 µM
Structure (SMILES): CC(C)c1cc(-c2nnc(O)n2-c2ccc3c(ccn3CCN(C)C(=O)CCCC(=O)Nc3cccc4c3CN(C3CCC(=O)NC3=O)C4=O)c2)c(O)cc1O (stereo not drawn) [SDC-TRAP-0018, N1-(2-(5-(3-(2,4-dihydroxy-5-isopropylphenyl)-5-hydroxy-4H-1,2,4-triazol-4-yl)-1H-indol-1-yl)ethyl)-N5-(2-(2,6-dioxopiperidin-3-yl)-1-oxoisoindolin-4-yl)-N1-methylglutaramide]

IC50 [1]: > 5 µM
IC50 ([2]; BT-474 cells): > 5 µM
Structure (SMILES): CC(C)c1cc(-c2nnc(O)n2-c2ccc3c(ccn3CCN(C)C(=O)NCC(=O)Nc3cccc4c3CN(C3CCC(=O)NC3=O)C4=O)c2)c(O)cc1O (stereo not drawn) [SDC-TRAP-0021, 2-(3-(2-(5-(3-(2,4-dihydroxy-5-isopropylphenyl)-5-hydroxy-4H-1,2,4-triazol-4-yl)-1H-indol-1-yl)ethyl)-3-methylureido)-N-(2-(2,6-dioxopiperidin-3-yl)-1-oxoisoindolin-4-yl)acetamide]

IC50 [1]: > 5 µM
IC50 ([2]; BT-474 cells): > 5 µM
Structure (SMILES): CC(C)c1cc(-c2nnc(O)n2-c2ccc3c(ccn3CCOCCN(C)C(=O)CCC(=O)Nc3cccc4c3CN(C3CCC(=O)NC3=O)C4=O)c2)c(O)cc1O (stereo not drawn) [SDC-TRAP-0033, N1-(2-(2-(5-(3-(2,4-dihydroxy-5-isopropylphenyl)-5-hydroxy-4H-1,2,4-triazol-4-yl)-1H-indol-1-yl)ethoxy)ethyl)-N4-(2-(2,6-dioxopiperidin-3-yl)-1-oxoisoindolin-4-yl)-N1-methylsuccinamide]

IC50 ([2]; BT-474 cells): 0.967 µM
concentration at 1 h ([3]; Plasma Conc.): 65.2 µM
concentration at 6 h ([3]; Plasma Conc.): 595 nM
concentration at 24 h ([3]; Plasma Conc.): 11.1 nM
concentration at 48 h ([3]; Plasma Conc.): 31.5 nM
Kp at 1 h ([3]; Tumor/Plasma Ratio): 0.21
Kp at 6 h ([3]; Tumor/Plasma Ratio): 10.2
Kp at 24 h ([3]; Tumor/Plasma Ratio): 251
Kp at 48 h ([3]; Tumor/Plasma Ratio): 46.5
Kp at […] ([3]; Tumor/Plasma Ratio): 0.03
Structure (SMILES): CC(C)c1cc(-c2nnc(O)n2-c2ccc(CC3CCN(CC(=O)Nc4cccc5c4CN(C4CCC(=O)NC4=O)C5=O)CC3)cc2)c(O)cc1O (stereo not drawn) [SDC-TRAP-0116, 2-(4-(4-(3-(2,4-dihydroxy-5-isopropylphenyl)-5-hydroxy-4H-1,2,4-triazol-4-yl)benzyl)piperidin-1-yl)-N-(2-(2,6-dioxopiperidin-3-yl)-1-oxoisoindolin-4-yl)acetamide]

Continued, compound first:

Structure (SMILES): C=CCNC1=C2C[C@@H](C)C[C@H](OC)[C@H](O)[C@@H](C)/C=C(\C)[C@H](OC(N)=O)[C@@H](OC)/C=C\C=C(/C)C(=O)NC(=CC1=O)C2=O [17-AAG, reference compound]
degradation of HER2 ([1]; overnight, 17-AAG at 0.5 μM): partial degradation of HER2

Structure (SMILES): CC(C)c1cc(-c2nnc(O)n2-c2ccc3c(ccn3CCN(C)C(=O)c3ccc(CCc4c[nH]c5nc(N)[nH]c(=O)c45)cc3)c2)c(O)cc1O [SDC-TRAP-0019, 4-(2-(2-amino-4-oxo-4,7-dihydro-3H-pyrrolo[2,3-d]pyrimidin-5-yl)ethyl)-N-(2-(5-(3-(2,4-dihydroxy-5-isopropylphenyl)-5-hydroxy-4H-1,2,4-triazol-4-yl)-1H-indol-1-yl)ethyl)-N-methylbenzamide]
IC50 [1]: 4.42 µM
IC50 [2, 5]: 4.42 µM

Structure (SMILES): CC(C)c1cc(-c2nnc(O)n2-c2ccc3c(ccn3CCOCCNC(=O)c3ccc(CCc4c[nH]c5nc(N)[nH]c(=O)c45)cc3)c2)c(O)cc1O [SDC-TRAP-0020, 4-(2-(2-amino-4-oxo-4,7-dihydro-3H-pyrrolo[2,3-d]pyrimidin-5-yl)ethyl)-N-(2-(2-(5-(3-(2,4-dihydroxy-5-isopropylphenyl)-5-hydroxy-4H-1,2,4-triazol-4-yl)-1H-indol-1-yl)ethoxy)ethyl)benzamide]
IC50 [1]: > 5 µM
IC50 [2, 5]: > 5 µM

Structure (SMILES): CCc1c2c(nc3ccc(OCC(=O)NCCn4ccc5cc(-n6c(O)nnc6-c6cc(C(C)C)c(O)cc6O)ccc54)cc13)-c1cc3c(c(=O)n1C2)COC(=O)C3(O)CC (stereo not drawn) [SDC-TRAP-0023, 2-((4,11-diethyl-4-hydroxy-3,14-dioxo-3,4,12,14-tetrahydro-1H-pyrano[3′,4′:6,7]indolizino[1,2b]quinolin-9-yl)oxy)-N-(2-(5-(3-(2,4-dihydroxy-5-isopropylphenyl)-5-hydroxy-4H-1,2,4-triazol-4-yl)-1H-indol-1-yl)ethyl)acetamide]
IC50 [1]: 4.3 µM
IC50 [2, 6]: 4.3 µM

Structure (SMILES): CC(C)c1cc(-c2nnc(O)n2-c2ccc3c(ccn3CCOC(=O)Nc3nc(=O)[nH]cc3F)c2)c(O)cc1O [SDC-TRAP-0025, 2-(5-(3-(2,4-dihydroxy-5-isopropylphenyl)-5-hydroxy-4H-1,2,4-triazol-4-yl)-1H-indol-1-yl)ethyl (5-fluoro-2-oxo-1,2-dihydropyrimidin-4-yl) carbamate]
IC50 [1]: 0.395 µM
IC50 ([2]; BT-474, SDC-TRAPs of the 52nd table): 0.403 µM

Structure (SMILES): CCc1c2c(nc3ccc(OCC(=O)N(C)CCn4ccc5cc(-n6c(O)nnc6-c6cc(C(C)C)c(O)cc6O)ccc54)cc13)-c1cc3c(c(=O)n1C2)COC(=O)C3(O)CC (stereo not drawn) [SDC-TRAP-0027, 2-((4,11-diethyl-4-hydroxy-3,14-dioxo-3,4,12,14-tetrahydro-1H-pyrano[3′,4′:6,7]indolizino[1,2-b]quinolin-9-yl)oxy)-N-(2-(5-(3-(2,4-dihydroxy-5-isopropylphenyl)-5-hydroxy-4H-1,2,4-triazol-4-yl)-1H-indol-1-yl)ethyl)-N-methylacetamide]
IC50 [1]: > 5 µM
IC50 [2, 6]: > 5 µM

Structure (SMILES): CCc1c2c(nc3ccc(O)cc13)-c1cc3c(c(=O)n1C2)COC(=O)C3(CC)OC(=O)CN1CCN(c2ccc(-n3c(O)nnc3-c3cc(C(C)C)c(O)cc3O)cc2)CC1 (stereo not drawn) [SDC-TRAP-0056, 4,11-diethyl-9-hydroxy-3,14-dioxo-3,4,12,14-tetrahydro-1H-pyrano[3′,4′:6,7]indolizino[1,2-b]quinolin-4-yl 2-(4-(4-(3-(2,4-dihydroxy-5-isopropylphenyl)-5-hydroxy-4H-1,2,4-triazol-4-yl)phenyl)piperazin-1-yl)acetate]
Kp ([3]; Tumor/Plasma Ratio, Tissue Distribution Data for SDC-TRAP-0056, time 6 h): 1.28
Kp ([3]; Tumor/Plasma Ratio, Tissue Distribution Data for SDC-TRAP-0056, time 12 h): 1.95
Kp ([3]; Tumor/Plasma Ratio, Tissue Distribution Data for SDC-TRAP-0056, time […]): 0.00525

Structure (SMILES): COc1ccc(-c2cnoc2-c2cc(OC)c(OC)c(OC)c2)cc1OC(=O)N1CCN(Cc2ccc(-n3c(O)nnc3-c3cc(C(C)C)c(O)cc3O)cc2)CC1 [SDC-TRAP-0098, 2-Methoxy-5-(5-(3,4,5-trimethoxyphenyl)isoxazol-4-yl)phenyl-4-(4-(3-(2,4-dihydroxy-5-isopropylphenyl)-5-hydroxy-4H-1,2,4-triazol-4-yl)benzyl)piperazine-1-carboxylate]
Kp at 1 h [4]: 0.62
Kp at 6 h [4]: 8.22
Kp at 24 h [4]: 300
Kp at […] [4]: 0.01

Structure (SMILES): CCNC(=O)c1nnc(-c2cc(C(C)C)c(O)cc2O)n1-c1ccc(Oc2ccc(C(=O)N3CCC(C(=O)OC4(CC)C(=O)OCc5c4cc4n(c5=O)Cc5c-4nc4ccc(O)cc4c5CC)CC3)cc2)cc1 (stereo not drawn) [SDC-TRAP-0154, 4,11-Diethyl-9-hydroxy-3,14-dioxo-3,4,12,14-tetrahydro-1H-pyrano[3′,4′:6,7]indolizino[1,2-b]quinolin-4-yl 1-(4-(4-(3-(2,4-dihydroxy-5-isopropylphenyl)-5-(ethylcarbamoyl)-4H-1,2,4-triazol-4-yl)phenoxy)benzoyl)piperidine-4-carboxylate]
Kp ([3]; Tumor/Plasma Ratio, Tissue Distribution Data for SDC-TRAP-0154, time 1 h): 0.06
Kp ([3]; Tumor/Plasma Ratio, Tissue Distribution Data for SDC-TRAP-0154, time 6 h): 1.86
Kp ([3]; Tumor/Plasma Ratio, Tissue Distribution Data for SDC-TRAP-0154, time 24 h): 11.9
Kp ([3]; Tumor/Plasma Ratio, Tissue Distribution Data for SDC-TRAP-0154, time 48 h): 86
Kp ([3]; Tumor/Plasma Ratio, Tissue Distribution Data for SDC-TRAP-0154, time […]): 0.01

Structure (SMILES): CC(C)c1cc(-c2nnc(O)n2-c2ccc(CN3CCN(C(=O)Oc4ccc(COC(=O)Nc5cccc6c5CN(C5CCC(=O)NC5=O)C6=O)cc4)CC3)c(F)c2)c(O)cc1O (stereo not drawn) [SDC-TRAP-0171, 4-((((2-(2,6-dioxopiperidin-3-yl)-1-oxoisoindolin-4-yl)carbamoyl)oxy)methyl)phenyl-4-(4-(3-(2,4-dihydroxy-5-isopropylphenyl)-5-hydroxy-4H-1,2,4-triazol-4-yl)-2-fluorobenzyl)piperazine-1-carboxylate]
Kp at 1 h [4]: 0.249
Kp at 6 h [4]: 3.1
Kp at 24 h [4]: 407
Kp at […] [4]: 0.0164
concentration at 1 h [4]: 32.2 µM
concentration at 6 h [4]: 1.21 µM
concentration at 24 h [4]: 1.62 nM

Structure (SMILES): CCNC(=O)c1nnc(-c2cc(C(C)C)c(O)cc2O)n1-c1ccc(CN2CCC(C(=O)N3CCN(c4cc(C)c(OC(=O)Nc5cccc6c5CN(C5CCC(=O)NC5=O)C6=O)c(C)c4)CC3)CC2)cc1 (stereo not drawn) [SDC-TRAP-0195, 4-(4-(1-(4-(3-(2,4-dihydroxy-5-isopropylphenyl)-5-(ethylcarbamoyl)-4H-1,2,4-triazol-4-yl)benzyl)piperidine-4-carbonyl)piperazin-1-yl)-2,6-dimethylphenyl (2-(2,6-dioxopiperidin-3-yl)-1-oxoisoindolin-4-yl)carbamate]
Kp at 1 h [4]: 0.109
Kp at 6 h [4]: 2.36
Kp at 24 h [4]: 5.5
Kp at […] [4]: 0.014
concentration at 1 h [4]: 211 µM
concentration at 6 h [4]: 7.23 µM
concentration at 24 h [4]: 2030 nM
